# US7300939B2, “Substituted 1-propiolylpiperazine compounds, their preparation and use” (Gruenenthal GmbH, priority 2005, dated 2007)
# Where a name gives a salt, the structure may show the parent alone.
# Target: T1, mGluR5 receptor (Sus scrofa, UniProt I3LUI7)
# T1 construct: from tissue; host or cells: pig brain halves without medulla, cerebellum and pons
# Experiment: [3H]-MPEP binding in the mGluR5 receptor binding assay (pig brain homogenate)
# Settings: for mGluR5-receptor (% inhibition 10 μM) in pigs: pig brain homogenate, 5 nM [3H]-MPEP; for IC50: Table II, unit inferred
# Experimental: I. Method the Determination of the Inhibition of the [^3H]-MPEP Binding in the mGluR5 Receptor Binding Assay
# Pig brain homogenate is prepared by homogenization (Polytron PT 3000, Kinematica AG, 10,000 revolutions per minute 90 seconds) of pig brain halves without medulla, cerebellum and pons in a buffer solution having a pH of 8.0 (30 mM of hepes, Sigma, order no. H3375+1 tablet of Complete to 100 ml, Roche Diagnostics, order no. 1836145) in a ratio of 1:20 (brain weight/volume) and differential centrifugation at 900×g and 40,000×g. In each case 450 μg of protein from brain homogenate are incubated with 5 nM [^3H]-MPEP (Tocris, order no. R1212) (MPEP=2-methyl-6-(3-methoxyphenyl)ethynylpyridine) and the compounds to be investigated (10 μM in the test) in a buffer solution (as above) in 250 μl incubation batches in 96-well microtiter plates at room temperature 60 min.
# Thereafter, the batches are filtered with the aid of a Brandel cell harvester (Brandel, Robotic 9600 model) onto Unifilter plates with glass fiber filter mats (Perkin Elmer, order no. 6005177) and then rinsed with buffer solution (as above) 3 times with 250 μl per sample each time. The filter plates are then dried 60 min at 55° C. 30 μl Ultima Gold™ scintillator (Packard BioScience, order no. 6013159) are subsequently added per well and, after 3 hours, the samples are measured on a β-counter (Mikrobeta, Perkin Elmer). The non-specific binding is determined by addition of 10 μM of MPEP (Tocris, order no. 1212).
# T1 sequence (I3LUI7 19-1212): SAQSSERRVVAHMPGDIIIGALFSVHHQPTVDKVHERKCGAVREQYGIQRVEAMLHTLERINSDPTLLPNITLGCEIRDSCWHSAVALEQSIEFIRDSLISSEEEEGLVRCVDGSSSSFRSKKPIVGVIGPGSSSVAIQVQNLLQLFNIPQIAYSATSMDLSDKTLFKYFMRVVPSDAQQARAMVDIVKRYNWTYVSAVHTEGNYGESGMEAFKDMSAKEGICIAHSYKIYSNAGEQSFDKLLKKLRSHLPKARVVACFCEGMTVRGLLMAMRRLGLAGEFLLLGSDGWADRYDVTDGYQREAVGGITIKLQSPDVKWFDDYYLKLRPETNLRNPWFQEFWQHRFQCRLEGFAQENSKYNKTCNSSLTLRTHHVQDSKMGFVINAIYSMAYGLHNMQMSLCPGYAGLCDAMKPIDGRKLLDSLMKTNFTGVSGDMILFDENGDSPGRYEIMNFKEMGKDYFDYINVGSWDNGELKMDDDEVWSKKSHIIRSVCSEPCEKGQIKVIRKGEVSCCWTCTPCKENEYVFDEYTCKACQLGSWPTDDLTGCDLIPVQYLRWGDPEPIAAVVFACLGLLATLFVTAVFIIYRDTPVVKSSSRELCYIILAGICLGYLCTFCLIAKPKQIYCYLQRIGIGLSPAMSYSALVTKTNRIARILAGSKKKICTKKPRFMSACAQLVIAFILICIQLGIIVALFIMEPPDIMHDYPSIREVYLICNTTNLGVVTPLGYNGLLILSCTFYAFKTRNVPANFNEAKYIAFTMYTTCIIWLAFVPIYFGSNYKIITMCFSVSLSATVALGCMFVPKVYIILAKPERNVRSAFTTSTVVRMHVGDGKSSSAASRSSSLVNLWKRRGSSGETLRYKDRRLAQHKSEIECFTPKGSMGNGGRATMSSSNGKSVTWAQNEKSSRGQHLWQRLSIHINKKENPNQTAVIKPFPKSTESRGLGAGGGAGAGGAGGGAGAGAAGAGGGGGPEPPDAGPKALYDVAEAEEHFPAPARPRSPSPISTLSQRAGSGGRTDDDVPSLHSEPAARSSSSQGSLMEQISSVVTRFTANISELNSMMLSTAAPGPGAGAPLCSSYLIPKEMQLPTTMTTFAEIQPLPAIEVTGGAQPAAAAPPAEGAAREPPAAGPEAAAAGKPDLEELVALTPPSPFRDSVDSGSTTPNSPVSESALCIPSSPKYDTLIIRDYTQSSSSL
smiles,measurement,value
"O=C(C#Cc1cccc(O)c1)N1CCN(c2nccs2)CC1 [Example AAA43, 4-(Thiazol-2-yl)-1-(3-(3-hydroxyphenyl)propiolyl)piperazine]",mGluR5-receptor (% inhibition 10 μM) in pigs,83%
"CC(=O)Nc1cccc(C#CC(=O)N2CCN(c3nccs3)CC2)c1 [Example AAA44, 4-(Thiazol-2-yl)-1-(3-(3-acetaminophenyl)propiolyl)piperazine]",mGluR5-receptor (% inhibition 10 μM) in pigs,30%
"COC(=O)c1cccc(C#CC(=O)N2CCN(c3nccs3)CC2)c1 [Example AAA49, 4-(Thiazol-2-yl)-1-(3-(3-carboxyphenyl)propiolyl)piperazine methyl ester]",mGluR5-receptor (% inhibition 10 μM) in pigs,43%
"Cc1ccccc1C#CC(=O)N1CCN(c2nccs2)CC1.Cl [Example AAA53, 4-(Thiazol-2-yl)-1-(3-(2-tolyl)propiolyl)piperazine hydrochloride]",mGluR5-receptor (% inhibition 10 μM) in pigs,33%
"Cc1ccc(C#CC(=O)N2CCN(c3nccs3)CC2)cc1.Cl [Example AAA55, 4-(Thiazol-2-yl)-1-(3-(4-tolyl)propiolyl)piperazine hydrochloride]",mGluR5-receptor (% inhibition 10 μM) in pigs,41%
"Cl.O=C(C#Cc1ccccc1C(F)(F)F)N1CCN(c2nccs2)CC1 [Example AAA57, 4-(Thiazol-2-yl)-1-(3-(2-trifluoromethylphenyl)propiolyl)piperazine hydrochloride]",mGluR5-receptor (% inhibition 10 μM) in pigs,81%
"O=C(C#Cc1cccc(C(F)(F)F)c1)N1CCN(c2nccs2)CC1 [Example AAA58, 4-(Thiazol-2-yl)-1-(3-(3-trifluoromethylphenyl)propiolyl)piperazine hydrochloride]",IC50,240 nM
"CCCCCC#CC(=O)N1CCN(c2nccs2)CC1 [Example AAA60, 4-(Thiazol-2-yl)-1-(3-pentylpropiolyl)piperazine]",IC50,1850 nM
"O=C(C#Cc1ccc(F)cc1)N1CCN(c2nccs2)CC1 [Example AAA61, 4-(Thiazol-2-yl)-1-(3-(4-fluorophenyl)propiolyl)piperazine]",mGluR5-receptor (% inhibition 10 μM) in pigs,76%
"CC1CN(c2nccs2)CCN1C(=O)C#Cc1ccccc1 (stereo not drawn) [Example AAA63, 2-Methyl-4-(thiazol-2-yl)-1-(3-phenylpropiolyl)piperazine]",mGluR5-receptor (% inhibition 10 μM) in pigs,89%
"C[C@H]1CN(c2nccs2)CCN1C(=O)C#Cc1ccccc1 [Example AAA64, (S)-2-Methyl-4-(thiazol-2-yl)-1-(3-phenylpropiolyl)piperazine]",mGluR5-receptor (% inhibition 10 μM) in pigs,72%
"C[C@@H]1CN(c2nccs2)CCN1C(=O)C#Cc1ccccc1 [Example AAA65, (R)-2-Methyl-4-(thiazol-2-yl)-1-(3-phenylpropiolyl)piperazine]",mGluR5-receptor (% inhibition 10 μM) in pigs,93%
"CC1CN(c2nccs2)CCN1C(=O)C#Cc1ccccc1.Cl (stereo not drawn) [Example AAA66, 2-Methyl-4-(thiazol-2-yl)-1-(3-phenylpropiolyl)piperazine hydrochloride]",mGluR5-receptor (% inhibition 10 μM) in pigs,93%
"Cc1cccc(C#CC(=O)N2CCN(c3nccs3)CC2C)c1.Cl (stereo not drawn) [Example AAA67, 2-Methyl-4-(thiazol-2-yl)-1-(3-(3-tolyl)propiolyl)piperazine hydrochloride]",mGluR5-receptor (% inhibition 10 μM) in pigs,94%
"O=C(C#CC1CCCCC1)N1CCN(c2nccs2)CC1 [Example AAA69, 4-(Thiazol-2-yl)-1-(3-cyclohexylpropiolyl)piperazine]",mGluR5-receptor (% inhibition 10 μM) in pigs,72%
"CCC1CN(c2nccs2)CCN1C(=O)C#Cc1ccccc1 (stereo not drawn) [Example AAA71, 2-Ethyl-4-(thiazol-2-yl)-1-(3-phenylpropiolyl)piperazine]",IC50,38 nM
"O=C(C#Cc1ccccc1)N1CCN(c2nccs2)CC1c1ccccc1 (stereo not drawn) [Example AAA72, 2-Phenyl-4-(thiazol-2-yl)-1-(3-phenylpropiolyl)piperazine]",mGluR5-receptor (% inhibition 10 μM) in pigs,81%
"O=C(C#Cc1ccco1)N1CCN(c2nccs2)CC1 [Example AAA73, 4-(Thiazol-2-yl)-1-(3-(2-furyl)propiolyl)piperazine]",mGluR5-receptor (% inhibition 10 μM) in pigs,74%
"O=C(C#Cc1ccoc1)N1CCN(c2nccs2)CC1 [Example AAA74, 4-(Thiazol-2-yl)-1-(3-(3-furyl)propiolyl)piperazine]",IC50,3190 nM
"C[C@@H]1CN(c2nccs2)C[C@H](C)N1C(=O)C#Cc1ccccc1 [Example AAA75, cis-2,6-Dimethyl-4-(thiazol-2-yl)-1-(3-phenylpropiolyl)piperazine]",mGluR5-receptor (% inhibition 10 μM) in pigs,97%
"CCOC(=O)c1cnc(N2CCN(C(=O)C#Cc3ccccc3)CC2)s1 [Example AAA76, 4-(5-Carboxy-thiazol-2-yl)-1-(3-phenylpropiolyl)piperazine ethyl ester]",IC50,170 nM
"CCOC(=O)c1csc(N2CCN(C(=O)C#Cc3ccccc3)CC2)n1 [Example AAA77, 4-(4-Carboxy-thiazol-2-yl)-1-(3-phenylpropiolyl)piperazine ethyl ester]",mGluR5-receptor (% inhibition 10 μM) in pigs,89%
"CNC(=O)c1cnc(N2CCN(C(=O)C#Cc3ccccc3)CC2)s1 [Example AAA80, 4-(5-Methylaminocarbonylthiazol-2-yl)-1-(3-phenylpropiolyl)piperazine]",mGluR5-receptor (% inhibition 10 μM) in pigs,76%
"CN(C)C(=O)c1cnc(N2CCN(C(=O)C#Cc3ccccc3)CC2)s1 [Example AAA81, 4-(5-Dimethylaminocarbonylthiazol-2-yl)-1-(3-phenylpropiolyl)piperazine]",mGluR5-receptor (% inhibition 10 μM) in pigs,72%
"O=C(C#Cc1ccccc1)N1CCN(c2nc(-c3ccccc3)ns2)CC1 [Example AAA82, 4-(3-Phenyl-1,2,4-thiadiazol-5-yl)-1-(3-phenylpropiolyl)piperazine]",mGluR5-receptor (% inhibition 10 μM) in pigs,37%
"O=C(C#Cc1ccccc1)N1CCN(c2nc(Cc3ccc(F)cc3)ns2)CC1 [Example AAA85, 4-(3-(4-Fluorobenzyl)-1,2,4-thiadiazol-5-yl)-1-(3-phenylpropiolyl)piperazine]",mGluR5-receptor (% inhibition 10 μM) in pigs,93%
"O=C(C#Cc1ccccc1)N1CCN(c2ncc([N+](=O)[O-])s2)CC1 [Example AAA86, 4-(5-Nitrothiazol-2-yl)-1-(3-phenylpropiolyl)piperazine]",mGluR5-receptor (% inhibition 10 μM) in pigs,31%
"Cc1cnc(N2CCN(C(=O)C#Cc3ccccc3)CC2)s1 [Example AAA88, 4-(5-Methylthiazol-2-yl)-1-(3-phenylpropiolyl)piperazine]",mGluR5-receptor (% inhibition 10 μM) in pigs,94%
"Cc1nc(N2CCN(C(=O)C#Cc3ccccc3)CC2)sc1C [Example AAA89, 4-(4,5-Dimethylthiazol-2-yl)-1-(3-phenylpropiolyl)piperazine]",mGluR5-receptor (% inhibition 10 μM) in pigs,86%
"Cc1csc(N2CCN(C(=O)C#Cc3ccccc3)CC2)n1 [Example AAA92, 4-(4-Methylthiazol-2-yl)-1-(3-phenylpropiolyl)piperazine]",mGluR5-receptor (% inhibition 10 μM) in pigs,87%
"O=C(C#Cc1ccccc1)N1CCN(c2nc(C(F)(F)F)cs2)CC1 [Example AAA93, 4-(4-Trifluoromethylthiazol-2-yl)-1-(3-phenylpropiolyl)piperazine]",mGluR5-receptor (% inhibition 10 μM) in pigs,52%
"O=C(C#Cc1ccccc1)N1CCN(c2nc(Cl)cs2)CC1 [Example AAA94, 4-(4-Chlorothiazol-2-yl)-1-(3-phenylpropiolyl)piperazine]",mGluR5-receptor (% inhibition 10 μM) in pigs,91%
"O=C(C#Cc1ccccc1)N1CCN(c2ncc(Cl)s2)CC1 [Example AAA95, 4-(5-Chlorothiazol-2-yl)-1-(3-phenylpropiolyl)piperazine]",mGluR5-receptor (% inhibition 10 μM) in pigs,58%
